The text below walks through data of patent US11331367B1, “Compounds and methods for inhibiting protozoan parasites” (University of South Florida, priority 2018, dated 2022).

Molecules are shown by their SMILES. Non-standard residues stand in square brackets, D forms with d. Residues, ends and D or L forms follow the SMILES beside them. *: point of attachment. NMeI = CC[C@H](C)[C@H](NC)C(=O)O; dNMeF = CN[C@H](Cc1ccccc1)C(=O)O; X1 = C(=C/c1c[nH]c2ccccc12)/N*; NMeV = CN[C@H](C(=O)O)C(C)C; NMeA = CN[C@@H](C)C(=O)O

The subject of this test is Plasmodium falciparum liver-stage parasites. The test can be described thus: microbe, parasite or virus in culture. To be noted: for inhibition of P. falciparum liver-stage development (in words): in vitro liver model, drug treatment at 10 μM. It is filed as cell-based. Here is the method: Bioactivity of friomaramide was evaluated for inhibition of Plasmodium falciparum liver-stage parasites and primary human hepatocyte (PHH) toxicity using an in vitro liver model. In brief, cryopreserved PHHs were seeded at 1.8×10^4 cells per well in a 384-well microplate. Freshly isolated P. falciparum sporozoites were inoculated at 2.0×10^4 per well with subsequent drug treatment at 10 μM. Media was changed daily with fresh addition of drug for 3 days until experiment fixation on day 6.

For `C[C@H]1[C@@H](O)O[C@@H]2O[C@@]3(C)CC[C@H]4[C@H](C)CC[C@@H]1[C@@]24OO3` [DHA], the “inhibition of P. falciparum liver-stage development (in words)” value was “does not inhibit”.

On to `CC[C@H](C)[C@@H](C(=O)N/C=C\c1c[nH]c2ccccc12)N(C)C(=O)[C@H]([C@@H](C)CC)N(C)C(=O)[C@H](C)N(C)C(=O)[C@H](C(C)C)N(C)C(=O)[C@@H](Cc1ccccc1)N(C)C(C)=O` [friomaramide] (Ac-[dNMeF][NMeV][NMeA][NMeI][NMeI]-X1), for which the “inhibition of P. falciparum liver-stage development (in words)” value was “block sporozoite invasion and subsequent liver-stage parasite development”.

One may read the inhibition as how much of the control response was suppressed. Consider `COc1cc(NC(C)CCCN)c2ncccc2c1` (stereo not drawn) [primaquine], for which, for the setting “Plasmodium falciparum, Hepatocyte, read-out: inhibition of P. falciparum liver-stage growth”, the inhibition at 10 µM is above 90%.
